Reference: ChEMBL document CHEMBL6114962, “Nucleoside antiviral agents with atypical structures and new targets” (Bioorg Med Chem Lett, 2025)
Values after ≈ are worked out from the molar mass of the structure shown.

What was measured:
[1] = system: Human alphaherpesvirus 3; assay: Antiviral activity against Varicella zoster virus infected in human HEL cells assessed as inhibition of plaque formation measured for 3 days; assay type: functional, organism-based; conditions: Human alphaherpesvirus 3, HEL, 72 h
[2] = system: HMEC-1; assay: Cytotoxicity against human HMEC-1 cells assessed as reduction in cell growth incubated for 24 hrs; assay type: functional
[3] = Cytotoxicity against African green monkey Vero cells; assay type: toxicity, cell-based; conditions: chlorocebus sabaeus
[4] = system: Human coronavirus OC43; assay: Antiviral activity against Human coronavirus OC43 infected in Vero cells assessed as reduction in viral replication pre-incubated with virus for 1 hr followed by washout and compound treatment and measured after 3 days by qRT-PCR analysis; assay type: functional, organism-based; conditions: Betacoronavirus 1, Vero
[5] = Cytotoxicity against dog MDCK cells assessed as reduction in cell viability incubated for 72 hrs by CCK-8 assay; assay type: toxicity, cell-based, Canis lupus familiaris
[6] = system: Influenza A virus; assay: Antiviral activity against Influenza virus H3N2 (A/Hong Kong/8/68) infected in dog MDCK cells assessed as reduction in virus induced cytopathic effect measured after 48 hrs by crystal violet staining based assay; assay type: functional, organism-based
[7] = system: Influenza A virus; assay: Antiviral activity against influenza A virus A/WSN/33 (H1N1) infected in dog MDCK cells assessed as reduction in virus induced cytopathic effect measured after 48 hrs by crystal violet staining based assay; assay type: functional, organism-based
[8] = biological target: Histone-lysine N-methyltransferase SETD2 (Homo sapiens, UniProt Q9BYW2); assay: Inhibition of human recombinant […] N-terminal His-tagged SETD2 (1347to1711 residues) extracted from Escherichia coli BL21 (DE3) using biotin-tagged Histone H3 and 3H-SAM as substrate incubated for 1 hr by TopCount scintillation proximity assay
Sequence of Histone-lysine N-methyltransferase SETD2 (Q9BYW2 whole entry, the tested form may be a part): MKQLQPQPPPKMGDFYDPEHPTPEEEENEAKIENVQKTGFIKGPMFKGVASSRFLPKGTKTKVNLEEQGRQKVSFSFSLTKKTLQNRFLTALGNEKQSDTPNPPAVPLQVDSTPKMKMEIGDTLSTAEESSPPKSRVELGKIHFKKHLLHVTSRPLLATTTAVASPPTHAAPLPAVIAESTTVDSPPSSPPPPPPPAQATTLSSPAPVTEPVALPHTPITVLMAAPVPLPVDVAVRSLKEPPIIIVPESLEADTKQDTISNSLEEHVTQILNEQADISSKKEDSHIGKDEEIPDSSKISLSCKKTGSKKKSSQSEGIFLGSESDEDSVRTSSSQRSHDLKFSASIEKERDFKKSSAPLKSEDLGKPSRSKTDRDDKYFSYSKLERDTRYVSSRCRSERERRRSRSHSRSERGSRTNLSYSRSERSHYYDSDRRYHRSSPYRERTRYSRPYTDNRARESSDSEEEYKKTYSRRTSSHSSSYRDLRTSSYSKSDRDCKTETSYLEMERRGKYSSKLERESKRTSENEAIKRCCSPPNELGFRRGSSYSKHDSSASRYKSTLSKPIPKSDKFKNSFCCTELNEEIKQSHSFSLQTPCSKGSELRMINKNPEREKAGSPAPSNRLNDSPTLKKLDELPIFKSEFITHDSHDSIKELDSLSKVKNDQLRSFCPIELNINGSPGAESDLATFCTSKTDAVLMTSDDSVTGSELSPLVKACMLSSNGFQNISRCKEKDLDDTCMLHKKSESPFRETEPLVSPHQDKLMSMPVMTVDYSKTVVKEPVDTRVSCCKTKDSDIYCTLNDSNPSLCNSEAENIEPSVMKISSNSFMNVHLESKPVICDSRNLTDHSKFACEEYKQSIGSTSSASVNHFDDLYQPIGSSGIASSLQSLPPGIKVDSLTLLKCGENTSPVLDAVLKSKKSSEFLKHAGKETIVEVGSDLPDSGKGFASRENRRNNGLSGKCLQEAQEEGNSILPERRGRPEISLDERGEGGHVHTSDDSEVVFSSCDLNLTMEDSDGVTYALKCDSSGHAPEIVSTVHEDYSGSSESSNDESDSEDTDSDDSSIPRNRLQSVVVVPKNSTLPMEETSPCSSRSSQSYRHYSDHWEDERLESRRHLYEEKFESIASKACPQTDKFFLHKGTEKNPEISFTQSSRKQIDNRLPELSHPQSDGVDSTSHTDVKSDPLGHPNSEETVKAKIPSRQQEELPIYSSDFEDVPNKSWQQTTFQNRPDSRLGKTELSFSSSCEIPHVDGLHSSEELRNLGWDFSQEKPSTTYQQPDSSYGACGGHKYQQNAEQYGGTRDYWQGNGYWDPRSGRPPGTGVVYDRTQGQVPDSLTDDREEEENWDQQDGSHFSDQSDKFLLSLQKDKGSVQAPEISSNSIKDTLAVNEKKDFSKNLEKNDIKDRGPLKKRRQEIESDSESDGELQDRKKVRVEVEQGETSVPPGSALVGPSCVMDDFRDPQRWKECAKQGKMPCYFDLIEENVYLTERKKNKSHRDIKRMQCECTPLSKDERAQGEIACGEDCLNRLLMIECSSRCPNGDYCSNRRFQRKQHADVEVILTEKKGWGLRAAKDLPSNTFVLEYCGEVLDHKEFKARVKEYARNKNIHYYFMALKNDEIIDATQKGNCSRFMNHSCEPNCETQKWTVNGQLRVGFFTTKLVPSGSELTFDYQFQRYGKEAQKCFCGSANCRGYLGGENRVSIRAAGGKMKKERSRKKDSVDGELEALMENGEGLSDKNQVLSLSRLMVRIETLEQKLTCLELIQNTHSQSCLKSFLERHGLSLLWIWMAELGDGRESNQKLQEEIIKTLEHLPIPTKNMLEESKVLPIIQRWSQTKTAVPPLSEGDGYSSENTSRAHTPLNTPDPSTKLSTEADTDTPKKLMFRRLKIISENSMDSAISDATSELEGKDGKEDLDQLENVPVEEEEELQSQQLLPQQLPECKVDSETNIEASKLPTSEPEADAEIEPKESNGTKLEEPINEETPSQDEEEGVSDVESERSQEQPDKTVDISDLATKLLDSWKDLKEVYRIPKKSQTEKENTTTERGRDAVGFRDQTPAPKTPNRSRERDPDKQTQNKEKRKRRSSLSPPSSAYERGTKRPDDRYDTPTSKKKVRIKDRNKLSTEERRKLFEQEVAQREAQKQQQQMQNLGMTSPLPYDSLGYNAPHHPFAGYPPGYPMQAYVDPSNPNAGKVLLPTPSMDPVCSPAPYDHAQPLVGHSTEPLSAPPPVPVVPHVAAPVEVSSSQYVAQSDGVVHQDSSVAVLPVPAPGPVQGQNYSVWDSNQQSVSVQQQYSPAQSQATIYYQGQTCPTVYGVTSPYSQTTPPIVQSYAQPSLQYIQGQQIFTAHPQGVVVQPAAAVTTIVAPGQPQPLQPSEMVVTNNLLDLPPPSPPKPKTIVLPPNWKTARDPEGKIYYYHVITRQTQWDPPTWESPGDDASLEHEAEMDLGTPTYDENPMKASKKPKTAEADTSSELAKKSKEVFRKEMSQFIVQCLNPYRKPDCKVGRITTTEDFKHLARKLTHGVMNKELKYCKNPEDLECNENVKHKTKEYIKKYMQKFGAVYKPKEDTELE

[9] = Cytotoxicity against African green monkey Vero E6 cells assessed as reduction in cell growth; assay type: toxicity, cell-based; conditions: chlorocebus sabaeus
[10] = system: Ebolavirus; assay: Antiviral activity against Ebola virus infected in Vero E6 cells assessed as virus-induced cytopathic effect incubated for 3 days by CPE assay; assay type: functional, organism-based; conditions: Orthoebolavirus, Vero C1008, 72 h
[11] = system: Vaccinia virus; assay: Antiviral activity against Vaccinia virus; assay type: functional, organism-based; conditions: Orthopoxvirus vaccinia
[12] = Cytotoxicity against human HFF cells; assay type: toxicity, cell-based
[13] = system: Influenza A virus; assay: Anti-influenza activity against influenza A virus H3N2 (A/California/2014) infected in dog MDCK cells incubated for 72 hrs by MTT assay; assay type: functional, organism-based
[14] = system: Influenza A virus; assay: Antiviral activity against influenza A virus H1N1 infected in dog MDCK cells assessed as reduction in virus induced cytopathic effect by CPE assay; assay type: functional, organism-based
[15] = Cytotoxicity against dog MDCK cells assessed as reduction in cell viability incubated for 48 hrs by CCK-8 assay; assay type: toxicity, cell-based, Canis lupus familiaris
[16] = Cytotoxicity against African green monkey Vero E6 cells assessed as reduction in cell viability by Cell titer-Glo luminescent assay; assay type: toxicity, cell-based; conditions: chlorocebus sabaeus
[17] = Cytotoxicity against African green monkey Vero E6 cells assessed as reduction in cell viability measured after 72 hrs by WST-1 assay; assay type: toxicity, cell-based, Vero C1008; conditions: chlorocebus sabaeus
[18] = system: SARS-CoV; assay: Antiviral activity against SARS-CoV HKU39849 infected in Vero E6 cells assessed as reduction in viral replication; assay type: functional, organism-based; conditions: Severe acute respiratory syndrome-related coronavirus, HKU39849, Vero C1008
[19] = system: SARS-CoV; assay: Antiviral activity against SARS-CoV Frankfurt-1 infected in Vero E6 cells assessed as reduction in viral replication; assay type: functional, organism-based; conditions: Severe acute respiratory syndrome-related coronavirus, Frankfurt-1, Vero C1008
[20] = system: SARS-CoV-2; assay: Antiviral activity against SARS CoV-2 Omicron B1.1.529 infected in Vero E6 cells at 0.02 MOI assessed as reduction in viral RNA growth incubated for 24 hrs by qRT-PCR analysis; assay type: functional, organism-based; conditions: Severe acute respiratory syndrome coronavirus 2, Omicron B1.1.529, Vero C1008, 24 h
[21] = system: SARS-CoV; assay: Antiviral activity against SARS-CoV Urbani infected in Vero E6 cells at 0.01 to 0.025 MOI assessed as inhibition of virus induced cytopathic effect; assay type: functional, organism-based; conditions: Severe acute respiratory syndrome-related coronavirus, Vero C1008
[22] = Cytotoxicity against African green monkey Vero E6 cells assessed as reduction in cell viability by neutral red uptake assay; assay type: toxicity, cell-based, Vero C1008; conditions: chlorocebus sabaeus
[23] = system: Hepatitis C virus; assay: Antiviral activity against Hepatitis C virus infected in Vero E6 cells assessed as virus induced cytopathic effect; assay type: functional, organism-based, Hepacivirus hominis; conditions: Vero C1008
[24] = biological target: RNA-directed RNA polymerase (Hepacivirus hominis, UniProt O39930); assay: Inhibition of Hepatitis C virus NS5B polymerase
Sequence of RNA-directed RNA polymerase (O39930 whole entry): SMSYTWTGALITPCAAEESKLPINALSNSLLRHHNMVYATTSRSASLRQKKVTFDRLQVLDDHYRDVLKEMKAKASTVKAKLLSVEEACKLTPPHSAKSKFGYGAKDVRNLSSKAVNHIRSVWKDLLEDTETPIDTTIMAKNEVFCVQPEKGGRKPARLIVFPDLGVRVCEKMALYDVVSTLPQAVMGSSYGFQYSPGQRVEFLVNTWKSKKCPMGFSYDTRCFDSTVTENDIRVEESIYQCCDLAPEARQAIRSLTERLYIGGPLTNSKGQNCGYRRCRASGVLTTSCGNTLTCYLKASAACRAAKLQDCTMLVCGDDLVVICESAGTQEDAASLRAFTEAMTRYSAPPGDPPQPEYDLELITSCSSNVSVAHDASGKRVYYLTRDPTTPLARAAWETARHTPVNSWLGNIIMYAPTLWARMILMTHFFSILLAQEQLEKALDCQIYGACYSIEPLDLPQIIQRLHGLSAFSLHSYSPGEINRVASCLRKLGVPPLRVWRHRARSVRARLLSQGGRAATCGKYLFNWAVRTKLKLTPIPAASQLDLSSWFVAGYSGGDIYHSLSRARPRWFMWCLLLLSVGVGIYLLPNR

[25] = system: Hepatitis C virus; assay: Antiviral activity against Hepatitis C virus infected in human Huh-7 cells assessed as reduction in viral infection incubated for 72 hrs by qRT-PCR analysis; assay type: functional, organism-based, Hepacivirus hominis; conditions: Huh-7, 72 h

## C#CCn1c(=O)n(C(=O)c2ccccc2F)c(=O)c2ccccc21
[1]
  EC50: 2.8 µM
[2]
  CC50: > 100 µM

## Cc1nc(N)c2c(C(N)=O)cc([C@@H]3O[C@H](CO)[C@@H](O)[C@H]3O)n2n1
[3]
  CC50: 45 µM
[4]
  EC50: 0.65 µM

## Cc1ncnc2c1c(/C=C/c1cccs1)cn2[C@@H]1O[C@H](CO)[C@@H](O)[C@@]1(C)F
[5]
  CC50 at 72 h: > 100 µM
[6]
  EC50: 3.61 µM
[7]
  EC50: 3.95 µM

## Nc1ncnc2c1ncn2[C@@H]1O[C@H](C[C@H](CC[C@H](N)C(=O)O)NCc2ccccc2)[C@@H](O)[C@H]1O
[8]
  IC50: 0.48 µM

## Nc1nccc2c1ncn2[C@@H]1C[C@H](CO)[C@@H](O)[C@H]1O [3-DEAZAARISTEROMYCIN A]
[9]
  CC50: > 100 µM
[10]
  EC50: 2 µM

## Nc1ccn(C[C@@H](CO)OCP(=O)(O)O)c(=O)n1 [CIDOFOVIR ANHYDROUS]
[11]
  EC50: 27.3 µM
[12]
  CC50: > 100 µM

## NC(=O)c1nc(F)cnc1O [FAVIPIRAVIR]
[13]
  EC50: 0.07 µg/mL (≈ 0.446 µM)
[14]
  EC50: 0.03 µg/mL (≈ 0.191 µM)
[15]
  CC50 at 48 h: > 100 µM

## O=c1[nH]cnc2c([C@@H]3N[C@H](CO)[C@@H](O)[C@H]3O)c[nH]c12 [FORODESINE]
[16]
  CC50: > 100 µM

## CC(C)Nc1nc2cc(Cl)c(Cl)cc2n1[C@H]1O[C@@H](CO)[C@H](O)[C@@H]1O [MARIBAVIR]
[16]
  CC50: > 100 µM

## NC(=O)c1ncn([C@@H]2O[C@H](CO)[C@@H](O)[C@H]2O)c1O [MIZORIBINE]
[17]
  CC50 at 72 h: > 200 µg/mL
[18]
  EC50: 16 µg/mL (≈ 61.7 µM)
[19]
  EC50: 3.5 µg/mL (≈ 13.5 µM)

## CC(C)C(=O)OC[C@H]1O[C@@H](n2ccc(NO)nc2=O)[C@H](O)[C@@H]1O [MOLNUPIRAVIR]
[16]
  CC50: > 100 µM
[20]
  EC50: 1.08 µM

## COc1c(C)c2c(c(O)c1C/C=C(\C)CCC(=O)O)C(=O)OC2 [MYCOPHENOLIC ACID]
[21]
  EC50: > 30 µM
[22]
  CC50: > 30 µM

## O=c1nc(NO)ccn1[C@@H]1O[C@H](CO)[C@@H](O)[C@H]1O [N-HYDROXYCYTIDINE]
[23]
  EC50: 5 µM
[24]
  IC50: 50 µM

## COc1nc(N)nc2c1ncn2[C@@H]1O[C@H](CO)[C@@H](O)[C@@H]1O [NELARABINE]
[16]
  CC50: > 100 µM

## CCC(CC)COC(=O)[C@H](C)N[P@](=O)(OC[C@H]1O[C@@](C#N)(c2ccc3c(N)ncnn23)[C@H](O)[C@@H]1O)Oc1ccccc1 [REMDESIVIR]
[16]
  CC50: > 100 µM
[20]
  EC50: 0.981 µM

## NC(=O)c1ncn([C@@H]2O[C@H](CO)[C@@H](O)[C@H]2O)n1 [RIBAVIRIN]
[17]
  CC50 at 72 h: > 200 µg/mL
[18]
  EC50: 80 µg/mL (≈ 328 µM)
[19]
  EC50: 20 µg/mL (≈ 81.9 µM)

## CC(C)=CCNc1ncnc2c1ncn2[C@@H]1O[C@H](CO)[C@@H](O)[C@H]1O [RIBOPRINE]
[16]
  CC50: > 100 µM

## Nc1ncnc2c1ncn2[C@@H]1O[C@H](C[C@@H](N)CC[C@H](N)C(=O)O)[C@@H](O)[C@H]1O [SINEFUNGIN]
[8]
  IC50: 28.4 µM

## CC(C)OC(=O)[C@H](C)N[P@](=O)(OC[C@H]1O[C@@H](n2ccc(=O)[nH]c2=O)[C@](C)(F)[C@@H]1O)Oc1ccccc1 [SOFOSBUVIR]
[25]
  EC50: 0.092 µM

## OC[C@H]1O[C@@H](n2cnc3c(N[C@@H]4CCOC4)ncnc32)[C@H](O)[C@@H]1O [TECADENOSON]
[16]
  CC50: > 100 µM
[20]
  EC50: 1.13 µM

## Nc1ncnc2c1ncn2[C@@H]1O[C@H](CO)[C@@H](O)[C@@H]1O [VIDARABINE]
[16]
  CC50: > 100 µM
[20]
  EC50: 0.251 µM
